Results reported in ChEMBL document CHEMBL4402510, “Caprazamycins: Promising lead structures acting on a novel antibacterial target MraY” (Eur J Med Chem, 2019).
Converted amounts (≈) assume the structure as drawn.

Assays:
Assay type in all cases: functional
[1] = tested on: Mycobacterium tuberculosis; experiment: Antibacterial activity against Mycobacterium tuberculosis H37Rv
Staphylococcus aureus [2] = experiment: Antibacterial activity against Staphylococcus aureus FDA 209P
[3] = tested on: Mycobacterium avium subsp. paratuberculosis; experiment: Antibacterial activity against Mycobacterium avium subsp. paratuberculosis ATCC 43015
[4] = tested on: Mycolicibacterium smegmatis; experiment: Antibacterial activity against Mycobacterium smegmatis ATCC 607
Mycolicibacterium phlei = experiment: Antibacterial activity against Mycobacterium phlei
Mycolicibacterium vaccae = experiment: Antibacterial activity against Mycobacterium vaccae ATCC 15483
Staphylococcus aureus [5] = experiment: Antibacterial activity against methicillin resistant Staphylococcus aureus No. 5
[6] = Antibacterial activity against Mycobacterium avium subsp. avium ATCC 25291
[7] = tested on: Mycobacterium tuberculosis; experiment: Antibacterial activity against Mycobacterium tuberculosis JCM 6384
[8] = tested on: Mycobacterium tuberculosis; experiment: Antibacterial activity against Mycobacterium tuberculosis Kurono
Bacillus subtilis = experiment: Antibacterial activity against Bacillus subtilis PCI 219
Staphylococcus aureus [9] = experiment: Antibacterial activity against methicillin resistant Staphylococcus aureus MS16526
Escherichia coli = experiment: Antibacterial activity against Escherichia coli K-12

CCc1ccc(NC(=O)C2=CCN(C)[C@@H]([C@H](O[C@@H]3O[C@H](CN)[C@@H](O)[C@H]3O)[C@H]3O[C@@H](n4ccc(=O)[nH]c4=O)[C@H](O)[C@@H]3O)C(=O)N2C)cc1
MIC [1]: 6.25 µg/mL (≈ 9.46 µM) | MIC (Staphylococcus aureus [2]): > 100 µg/mL | MIC [3]: > 100 µg/mL | MIC [4]: > 100 µg/mL | MIC (Mycolicibacterium phlei): 12.5 µg/mL (≈ 18.9 µM) | MIC (Mycolicibacterium vaccae): > 100 µg/mL | MIC (Staphylococcus aureus [5]): > 100 µg/mL | MIC [6]: 100 µg/mL (≈ 151 µM) | MIC [7]: > 100 µg/mL | MIC [8]: 3.13 µg/mL (≈ 4.74 µM)

CCCCCCCCCCCCCCCCCCCCNC(=O)C1=CCN(C)[C@@H]([C@H](O[C@@H]2O[C@H](CN)[C@@H](O)[C@H]2O)[C@H]2O[C@@H](n3ccc(=O)[nH]c3=O)[C@H](O)[C@@H]2O)C(=O)N1C
MIC [1]: 1.56 µg/mL (≈ 1.86 µM) | MIC (Staphylococcus aureus [2]): > 100 µg/mL | MIC [3]: 50 µg/mL (≈ 59.7 µM) | MIC [4]: 6.25 µg/mL (≈ 7.47 µM) | MIC (Mycolicibacterium phlei): 1.56 µg/mL (≈ 1.86 µM) | MIC (Mycolicibacterium vaccae): 12.5 µg/mL (≈ 14.9 µM) | MIC (Staphylococcus aureus [5]): > 100 µg/mL | MIC [6]: 25 µg/mL (≈ 29.9 µM) | MIC [7]: > 100 µg/mL | MIC [8]: 1.56 µg/mL (≈ 1.86 µM)

CCCCCCCc1ccc(NC(=O)C2=CCN(C)[C@@H]([C@H](O[C@@H]3O[C@H](CN)[C@@H](O)[C@H]3O)[C@H]3O[C@@H](n4ccc(=O)[nH]c4=O)[C@H](O)[C@@H]3O)C(=O)N2C)cc1
MIC (Bacillus subtilis): 6.25 µg/mL (≈ 8.55 µM) | MIC [1]: 0.78 µg/mL (≈ 1.07 µM) | MIC (Staphylococcus aureus [9]): 50 µg/mL (≈ 68.4 µM) | MIC (Staphylococcus aureus [2]): 12.5 µg/mL (≈ 17.1 µM) | MIC [3]: 0.05 µg/mL (≈ 0.0684 µM) | MIC [4]: < 0.2 µg/mL | MIC (Mycolicibacterium phlei): 25 µg/mL (≈ 34.2 µM) | MIC (Mycolicibacterium vaccae): 1.56 µg/mL (≈ 2.13 µM) | MIC (Staphylococcus aureus [5]): < 0.2 µg/mL | MIC [6]: 1.56 µg/mL (≈ 2.13 µM) | MIC [7]: 0.1 µg/mL (≈ 0.137 µM) | MIC [8]: 0.78 µg/mL (≈ 1.07 µM)

CCCCCCc1ccc(NC(=O)C2=CCN(C)[C@@H]([C@H](O[C@@H]3O[C@H](CN)[C@@H](O)[C@H]3O)[C@H]3O[C@@H](n4ccc(=O)[nH]c4=O)[C@H](O)[C@@H]3O)C(=O)N2C)cc1
MIC [1]: 0.78 µg/mL (≈ 1.09 µM) | MIC (Staphylococcus aureus [2]): > 100 µg/mL | MIC [3]: 0.78 µg/mL (≈ 1.09 µM) | MIC [4]: 1.56 µg/mL (≈ 2.18 µM) | MIC (Mycolicibacterium phlei): 0.39 µg/mL (≈ 0.544 µM) | MIC (Mycolicibacterium vaccae): 12.5 µg/mL (≈ 17.4 µM) | MIC (Staphylococcus aureus [5]): 12.5 µg/mL (≈ 17.4 µM) | MIC [6]: 0.2 µg/mL (≈ 0.279 µM) | MIC [7]: 6.25 µg/mL (≈ 8.72 µM) | MIC [8]: 0.78 µg/mL (≈ 1.09 µM)

C=CCCCCCCCCCOC(=O)C1=CCN(C)[C@@H]([C@H](O[C@@H]2O[C@H](CN)[C@@H](O)[C@H]2O)[C@H]2O[C@@H](n3ccc(=O)[nH]c3=O)[C@H](O)[C@@H]2O)C(=O)N1C
MIC [1]: 12.5 µg/mL (≈ 17.6 µM) | MIC (Staphylococcus aureus [9]): > 100 µg/mL | MIC (Staphylococcus aureus [2]): 1.56 µg/mL (≈ 2.2 µM) | MIC [3]: 6.25 µg/mL (≈ 8.81 µM) | MIC [4]: 25 µg/mL (≈ 35.2 µM) | MIC (Mycolicibacterium phlei): 50 µg/mL (≈ 70.4 µM) | MIC (Mycolicibacterium vaccae): 50 µg/mL (≈ 70.4 µM) | MIC (Staphylococcus aureus [5]): > 100 µg/mL | MIC [6]: 12.5 µg/mL (≈ 17.6 µM) | MIC [7]: 12.5 µg/mL (≈ 17.6 µM) | MIC [8]: 12.5 µg/mL (≈ 17.6 µM)

CCCCCCCCCCCCCCCCCNC(=O)C1=CCN(C)[C@@H]([C@H](O[C@@H]2O[C@H](CN)[C@@H](O)[C@H]2O)[C@H]2O[C@@H](n3ccc(=O)[nH]c3=O)[C@H](O)[C@@H]2O)C(=O)N1C
MIC [1]: 3.13 µg/mL (≈ 3.94 µM) | MIC [3]: 6.25 µg/mL (≈ 7.86 µM) | MIC [4]: 1.56 µg/mL (≈ 1.96 µM) | MIC (Mycolicibacterium phlei): > 100 µg/mL | MIC (Mycolicibacterium vaccae): > 100 µg/mL | MIC [6]: 1.56 µg/mL (≈ 1.96 µM) | MIC [7]: 6.25 µg/mL (≈ 7.86 µM) | MIC [8]: 6.25 µg/mL (≈ 7.86 µM)

CCCCOc1ccc(NC(=O)C2=CCN(C)[C@@H]([C@H](O[C@@H]3O[C@H](CN)[C@@H](O)[C@H]3O)[C@H]3O[C@@H](n4ccc(=O)[nH]c4=O)[C@H](O)[C@@H]3O)C(=O)N2C)cc1
MIC (Bacillus subtilis): > 100 µg/mL | MIC [1]: 1.56 µg/mL (≈ 2.21 µM) | MIC (Staphylococcus aureus [9]): 3.13 µg/mL (≈ 4.44 µM) | MIC (Staphylococcus aureus [2]): > 100 µg/mL | MIC [3]: 0.78 µg/mL (≈ 1.11 µM) | MIC [4]: 25 µg/mL (≈ 35.5 µM) | MIC (Mycolicibacterium phlei): > 100 µg/mL | MIC (Mycolicibacterium vaccae): 100 µg/mL (≈ 142 µM) | MIC (Staphylococcus aureus [5]): > 100 µg/mL | MIC (Escherichia coli): > 100 µg/mL | MIC [6]: 3.13 µg/mL (≈ 4.44 µM) | MIC [7]: 0.78 µg/mL (≈ 1.11 µM) | MIC [8]: 3.13 µg/mL (≈ 4.44 µM)

CCCCCCCCCCCCCOC(=O)C1=CCN(C)[C@@H]([C@H](O[C@@H]2O[C@H](CN)[C@@H](O)[C@H]2O)[C@H]2O[C@@H](n3ccc(=O)[nH]c3=O)[C@H](O)[C@@H]2O)C(=O)N1C
MIC (Bacillus subtilis): 25 µg/mL (≈ 33.8 µM) | MIC [1]: 6.25 µg/mL (≈ 8.45 µM) | MIC (Staphylococcus aureus [9]): > 100 µg/mL | MIC (Staphylococcus aureus [2]): 12.5 µg/mL (≈ 16.9 µM) | MIC [3]: 12.5 µg/mL (≈ 16.9 µM) | MIC [4]: 6.25 µg/mL (≈ 8.45 µM) | MIC (Mycolicibacterium phlei): 25 µg/mL (≈ 33.8 µM) | MIC (Mycolicibacterium vaccae): 3.13 µg/mL (≈ 4.23 µM) | MIC (Staphylococcus aureus [5]): 0.78 µg/mL (≈ 1.05 µM) | MIC [6]: 3.13 µg/mL (≈ 4.23 µM) | MIC [7]: 12.5 µg/mL (≈ 16.9 µM) | MIC [8]: 50 µg/mL (≈ 67.6 µM)
